Experimental data: patent US20190298740A1, “METHODS AND COMPOSITIONS FOR TREATING HALLUCINATIONS AND CONDITIONS RELATED TO THE SAME” (Enterin, Inc., priority 2018, published 2019)
Entries after “also recorded” stand apart in the source; their conditions may differ.

How the values were obtained:
[1] = Aminosterol-induced response after a single oral dose; format: in vivo; details: single 200 mg oral dose
[2] = tested on: Parkinson's disease patient with hallucinations; assay: Case reports: oral squalamine in PD patients with hallucinations (Examples 1-3); format: in vivo, human
From the text: MV1, a person with a 13-year history of PD had been suffering from daily visual hallucinations for 5 years. MV1 reported that the hallucinations occurred at night. MV1 was aware that the apparitions were unreal, and they were fully awake when they occurred. The hallucinations consisted mostly of faceless dead relatives who came into their bedroom, sat on their bed, or in a chair, or walked around. […] Sometimes MV1 would shout at the hallucinations to go away and the hallucinations would disappear. MV1 also had tactile hallucinations, causing MV1 to feel that insects such as cockroaches were climbing up their legs. They would bend down and attempt to brush them off their feet and legs. MV1 also had tactile hallucinations of the hands “as if someone was picking at them”. They were not treated with any antipsychotic medication and they didn't take any sleeping pills or sedatives. They also suffered from REM-behavior disorder (RBD), and had thrashing of arms and legs during their sleep. Their spouse had moved out of the bed several years prior because of the thrashing, screaming and hallucinations.
The patient was started on 75 mg squalamine daily. […] They were also sleeping better. […] Subsequently, the dose was increased to 175 mg, and maintained at 175 mg per day for another week or two, before discontinued. […]
NY1, a person with a 5-year history of PD suffered from daily hallucinations. The hallucinations had been occurring for a number of years. The hallucinations occurred any time of day or night.
NY1 was started on squalamine 75 mg daily and then escalated to 100 mg daily. […] They were maintained at 125 mg per day for about a week, after which medication was discontinued. NY1 remained hallucination-free for 9 days following discontinuation.
The patient, a person with a 10-year history of Parkinson's Disease suffered from frequent hallucinations. The hallucinations would occur at night and consist of people roaming around in their bedroom, such as a young person sitting on their bed, or a priest standing by the bed. They were fully awake and aware that the visions were unreal. They also suffered from fragmented sleep and REM-behavior disorder (RBD).
BC was started on a squalamine dose of 75 mg daily, which was increased to a daily dose of 175 mg that was maintained for a 3-month period. […] They described the hallucinations as cooks with white top hats and cleaners in blue uniforms. […] Upon discontinuing the medication, the hallucinations returned. This cycle of stopping and resuming squalamine treatment was repeated three times, and the hallucinations abated every time the squalamine treatment was resumed and hallucinations came back every time squalamine treatment was stopped. A portion of their sleep diary is shown below in Table 2.

[3] = cited from earlier work
[4] = cited from earlier work; remark: listed apart in the source
[5] = tested on: PD related hallucinations; details: cited from earlier work
[6] = cited from earlier work; remark: listed apart in the source

CC(C)[C@@H](CC[C@@H](C)[C@H]1CC[C@H]2[C@@H]3[C@H](O)C[C@H]4C[C@@H](NCCCNCCCCN)CC[C@]4(C)[C@H]3CC[C@]12C)OS(=O)(=O)O [squalamine]
Duration of the aminosterol-induced response [1]: about 4 days | Time hallucination-free following discontinuation, patient NY1 ([2]; after 125 mg per day for about a week): 9 days | Time hallucination-free after discontinuation, patient MV1 ([2]; after 175 mg per day): 30 days | Hallucinations, patient ([2]; after stopping squalamine administration): vivid hallucinations returned; also recorded: Apparitions back with a vengeance; also recorded: Apparitions, cooks in tall hats; also recorded: Apparitions, cleaning crew in blue uniforms; also recorded: Apparitions, severely disturbed sleep | Hallucination frequency, patient NY1 ([2]; oral, 100 mg daily, daily hallucinations before): no more than once or twice a week | Sleep and RBD, patient MV1 ([2]; oral, 125 mg daily): continued to improve | Hallucinations, patient NY1 ([2]; oral, 125 mg per day): disappeared altogether | Hallucinations, patient ([2]; oral, 175 mg daily for 3 months): no hallucinations | Hallucinations, patient MV1 ([2]; oral, daily dose increased to 125 mg): disappeared completely | Hallucinations, patient MV1 ([2]; oral, dose increased from 75 mg daily): hallucinating less frequently | Hallucinations, patient ([2]; squalamine restarted at 125 mg daily): hallucinations vanished; also recorded: No hallucinations since last entry; also recorded: No hallucinations since restarting

CC(C)[C@@H](CC[C@@H](C)[C@H]1CC[C@H]2[C@@H]3[C@H](O)C[C@H]4C[C@@H](NCCCNCCCCN)CC[C@]4(C)[C@H]3CC[C@]12C)OS(=O)(=O)O.C[C@H](O)C(=O)O.C[C@H](O)C(=O)O [squalamine dilactate salt]
Solubility in water [3]: highly water soluble | Oral bioavailability ([4]; preliminary studies): poorly bioavailable orally | Absorption ([4]; rodents, subcutaneous and intraperitoneal routes): well absorbed

CC(C)COc1ccc(CNC(=O)N(Cc2ccc(F)cc2)C2CCN(C)CC2)cc1 [Pimavanserin]
Improvement over placebo on the SCAD-PD questionnaire ([5]; PD related hallucinations): 3 point | Increased mortality (black box warning) ([5]; label): 11%

CC(C)[C@@H](CC[C@@H](C)[C@H]1CC[C@H]2[C@@H]3[C@H](O)C[C@H]4C[C@@H](NCCCNCCCCNCCCN)CC[C@]4(C)[C@H]3CC[C@]12C)OS(=O)(=O)O [Aminosterol 1436]
Duration of the aminosterol-induced response [1]: about 4 days | Weight loss ([6]; administered parenterally to dogs and rodents): capable of inducing weight loss | Anorectic activity ([6]; delivered orally): no anorectic activity
